Measured values from patent US20230365554A1, “SUBSTITUTED PYRROLO-PYRIDINONE DERIVATIVES AND THERAPEUTIC USES THEREOF” (The Broad Institute, Inc., priority 2020, published 2023).

Experiments:
[1] = biological target: human CSNK1D (Homo sapiens (Human), UniProt P48730); assay: CSNK1D assay (ADP-Glo, 1 μM ATP); type: biochemical; conditions: median, Table 2, read-out: CSNK1D IC50 [mol/l] (median)
Protocol: CSNK1D-inhibitory activity of compounds of the present invention in presence of 1 μM adenosine-tri-phosphate (ATP) was quantified employing the CSNK1D assay as described in the following paragraphs. In essence, the enzyme activity is measured by quantification of the adenosine-di-phosphate (ADP), which is generated as a co-product of the enzyme reaction, via the “ADP-Glo™ Kinase Assay” kit from the company Promega. This detection system works as follows: In a first step the ATP not consumed in the kinase reaction is quantitatively converted to cAMP employing an adenylate cyclase (“ADP-Glo-reagent”), then the adenylate cyclase is stopped and the ADP generated in the kinase reaction converted to ATP which generates in a luciferase-based reaction a glow-luminescence signal (“Kinase Detection Reagent”).
(§1) Recombinant fusion protein of N-terminal Glutathion-S-Transferase (GST) and full-length human CSNK1D, expressed by baculovirus infected insect cells and purified via Glutathion affinity chromatography, was purchased from Life Technologies (product no. PV3665) and used as enzyme. As substrate for the kinase reaction the biotinylated peptide Btn-Ahx-SGSEGDSESGEEEG (C-terminus in amide form) was used which can be purchased e.g. from the company Biosyntan (Berlin-Buch, Germany).
For the assay 50 nl of a 100 fold concentrated solution of the test compound in DMSO was pipetted into a white 1536-well microtiter plate (Greiner Bio-One, Frickenhausen, Germany), 2 μL of a solution of CSNK1D in aqueous assay buffer [50 mM HEPES pH 7.5, 10% (v/v) glycerol, 10 mM MgCl2, 50 mM NaCl, 1 mM dithiothreitol, 0.01% (w/v) bovine serum albumin, 0.01% (v/v) Triton X-100] were added and the mixture was incubated for 15 min at 22° C. to allow pre-binding of the test compounds to the enzyme before the start of the kinase reaction. Then the kinase reaction was started by the addition of 3 μL of a solution of ATP (1.67 μM=>final conc. in the 5 μL assay volume is 1 μM) and peptide substrate (50 μM=>final conc. in the 5 μL assay volume is 30 μM) in assay buffer and the resulting mixture was incubated for a reaction time of 30 min at 22° C. The concentration of CSNK1D was adjusted depending of the activity of the enzyme lot and was chosen appropriate to have the assay in the linear range, a typical concentration is about 0.5 ng/μL. The reaction was stopped by the addition of 2.5 μL of “ADP-Glo-reagent” (1:1.5 fold diluted with water) and the resulting mixture was incubated at 22° C. for 1 h to convert the ATP not consumed in the kinase reaction completely […]. Subsequently 2.5 μL of the “kinase detection reagent” (1.2 fold more concentrated than recommended by the producer) were added, the resulting mixture was incubated at 22° C. for 1 h and then the luminescence measured with a suitable measurement instrument (e.g. Viewlux™ from Perkin-Elmer). The amount of emitted light was taken as a measure for the amount of ADP generated and thereby for the activity of the CSNK1D.
(§2) The data were normalised (enzyme reaction without inhibitor=0% inhibition, all other assay components but no enzyme=100% inhibition).

[2] = biological target: human CSNK1A1 (Homo sapiens (Human), UniProt P48729); assay: CSNK1A1 Assay 2 (ADP-Glo, 1 μM ATP); type: biochemical; conditions: median, Table 2, read-out: CSNK1A1 Assay 2 IC50 [mol/l] (median)
Protocol: CSNK1A1-inhibitory activity of compounds of the present invention in presence of 1 μM adenosine-tri-phosphate (ATP) was quantified employing the CSNK1A1 assay as described in the following paragraphs. In essence, the enzyme activity is measured by quantification of the adenosine-di-phosphate (ADP), which is generated as a co-product of the enzyme reaction, via the “ADP-Glo™ Kinase Assay” kit from the company Promega. This detection system works as follows: In a first step the ATP not consumed in the kinase reaction is quantitatively converted to cAMP employing an adenylate cyclase (“ADP-Glo-reagent”), then the adenylate cyclase is stopped and the ADP generated in the kinase reaction converted to ATP which generates in a luciferase-based reaction a glow-luminescence signal (“Kinase Detection Reagent”).
as §1, with “CSNK1A1,” for “CSNK1D,”, “PV4174)” for “PV3665)”, “biotin-Ahx-KRRRAL-pS-VASLPGL” for “Btn-Ahx-SGSEGDSESGEEEG”
For the assay 50 nl of a 100 fold concentrated solution of the test compound in DMSO was pipetted into a white 1536-well microtiter plate (Greiner Bio-One, Frickenhausen, Germany), 2 μL of a solution of CSNK1A1 in aqueous assay buffer [50 mM HEPES pH 7.5, 10% (v/v) glycerol, 10 mM MgCl2, 50 mM NaCl, 1 mM dithiothreitol, 0.01% (w/v) bovine serum albumin, 0.01% (v/v) Triton X-100] were added and the mixture was incubated for 15 min at 22° C. to allow pre-binding of the test compounds to the enzyme before the start of the kinase reaction. Then the kinase reaction was started by the addition of 3 μL of a solution of ATP (1.67 μM=>final conc. in the 5 μL assay volume is 1 μM) and peptide substrate (50 μM=>final conc. in the 5 μL assay volume is 30 μM) in assay buffer and the resulting mixture was incubated for a reaction time of 30 min at 22° C. The concentration of CSNK1A1 was adjusted depending of the activity of the enzyme lot and was chosen appropriate to have the assay in the linear range, a typical concentrations are about 0.0375 ng/μL. The reaction was stopped by the addition of 2.5 μL of “ADP-Glo-reagent” (1:1.5 fold diluted with water) and the resulting mixture was incubated at 22° C. for 1 h to convert the ATP not consumed in the kinase reaction completely […]. Subsequently 2.5 μL of the “kinase detection reagent” (1.2 fold more concentrated than recommended by the producer) were added, the resulting mixture was incubated at 22° C. for 1 h and then the luminescence measured with a suitable measurement instrument (e.g. Viewlux™ from Perkin-Elmer). The amount of emitted light was taken as a measure for the amount of ADP generated and thereby for the activity of the CSNK1A1.
as §2

Chain of human CSNK1D (P48730 whole entry): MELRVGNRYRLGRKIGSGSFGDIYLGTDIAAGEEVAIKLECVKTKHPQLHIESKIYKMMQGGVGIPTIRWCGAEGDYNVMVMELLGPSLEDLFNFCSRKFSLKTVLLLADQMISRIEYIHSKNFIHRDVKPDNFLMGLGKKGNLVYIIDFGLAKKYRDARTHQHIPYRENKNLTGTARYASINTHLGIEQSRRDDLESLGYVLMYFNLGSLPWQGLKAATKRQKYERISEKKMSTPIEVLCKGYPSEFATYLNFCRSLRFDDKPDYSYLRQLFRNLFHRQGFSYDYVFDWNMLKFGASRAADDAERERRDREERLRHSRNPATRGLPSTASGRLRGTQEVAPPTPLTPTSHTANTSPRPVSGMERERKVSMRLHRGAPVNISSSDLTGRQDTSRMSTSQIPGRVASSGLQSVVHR
Chain of human CSNK1A1 (P48729 whole entry): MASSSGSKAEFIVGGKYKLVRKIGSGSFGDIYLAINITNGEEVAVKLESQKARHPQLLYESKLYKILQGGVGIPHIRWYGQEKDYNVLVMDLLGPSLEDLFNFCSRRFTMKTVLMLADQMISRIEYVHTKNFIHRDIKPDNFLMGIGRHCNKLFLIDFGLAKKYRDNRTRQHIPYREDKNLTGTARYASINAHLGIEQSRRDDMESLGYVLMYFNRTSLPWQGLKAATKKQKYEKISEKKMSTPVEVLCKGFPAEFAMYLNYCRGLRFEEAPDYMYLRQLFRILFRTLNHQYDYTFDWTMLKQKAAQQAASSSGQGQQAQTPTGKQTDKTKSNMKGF

CC1CN(C)C(=O)c2c1[nH]c(-c1ccnc(NC(=O)Cc3ccc(F)cc3)c1)c2Nc1ccccc1 (single isomer, unassigned; (-)) [Example 7, (−)-N-{4-[3-anilino-5,7-dimethyl-4-oxo-4,5,6,7-tetrahydro-1H-pyrrolo[3,2-c]pyridin-2-yl]pyridin-2-yl}-2-(4-fluorophenyl)acetamide]
IC50 [1]: 0.011 µM | IC50 [2]: 0.0055 µM

CC1CN(C)C(=O)c2c1[nH]c(-c1ccnc(NC(=O)C(C)c3ccc(F)cc3)c1)c2Nc1ccccc1 (racemic) [Example 9, N-{4-[(7RS)-3-anilino-5,7-dimethyl-4-oxo-4,5,6,7-tetrahydro-1H-pyrrolo[3,2-c]pyridin-2-yl]pyridin-2-yl}-2-(4-fluorophenyl)propanamide]
IC50 [1]: 0.012 µM | IC50 [2]: 0.0056 µM

CN1CC(CC(F)(F)F)c2[nH]c(-c3ccnc(NC(=O)C(CC(F)F)c4ccc(F)cc4)c3)c(Nc3ccccc3)c2C1=O (stereo not shown) [Example 17, N-{4-[3-anilino-5-methyl-4-oxo-7-(2,2,2-trifluoroethyl)-4,5,6,7-tetrahydro-1H-pyrrolo[3,2-c]pyridin-2-yl]pyridin-2-yl}-4,4-difluoro-2-(4-fluorophenyl)butanamide]
IC50 [1]: 0.017 µM | IC50 [2]: 0.017 µM

Cc1cn(C)c(=O)c2c(Nc3ccccc3)c(-c3ccnc(NC(=O)C(C)c4ccc(F)cc4)c3)[nH]c12 (single isomer, unassigned) [Example 40, N-[4-(3-anilino-5,7-dimethyl-4-oxo-4,5-dihydro-1H-pyrrolo[3,2-c]pyridin-2-yl)pyridin-2-yl]-2-(4-fluorophenyl)propanamide]
IC50 [1]: 0.019 µM | IC50 [2]: 0.015 µM

CN1CC(CC(F)(F)F)c2[nH]c(-c3ccnc(NC(=O)C(CC(F)F)c4ccc(F)cc4)c3)c(Nc3cscn3)c2C1=O (single isomer, unassigned) [Example 54, (2R or S)-4,4-difluoro-2-(4-fluorophenyl)-N-{4-[(7R or S)-5-methyl-4-oxo-3-[(1,3-thiazol-4-yl)amino]-7-(2,2,2-trifluoroethyl)-4,5,6,7-tetrahydro-1H-pyrrolo[3,2-c]pyridin-2-yl]pyridin-2-yl}butanamide]
IC50 [1]: 0.004 µM | IC50 [2]: 0.003 µM

Cc1cn(C)c(=O)c2c(Nc3ccccc3)c(-c3ccnc(NC(=O)C(CC(F)F)c4ccc(F)cc4)c3)[nH]c12 (racemic) [Example 11, N-[4-(3-anilino-5,7-dimethyl-4-oxo-4,5-dihydro-1H-pyrrolo[3,2-c]pyridin-2-yl)pyridin-2-yl]-4,4-difluoro-2-(4-fluorophenyl)butanamide]
IC50 [1]: 0.025 µM | IC50 [2]: 0.019 µM

CN1CC(CC2CC2)c2[nH]c(-c3ccnc(NC(=O)Cc4ccc(F)cc4)c3)c(Nc3ccccc3)c2C1=O (racemic) [Example 18, N-{4-[3-anilino-7-(cyclopropylmethyl)-5-methyl-4-oxo-4,5,6,7-tetrahydro-1H-pyrrolo[3,2-c]pyridin-2-yl]pyridin-2-yl}-2-(4-fluorophenyl)acetamide]
IC50 [1]: 0.012 µM | IC50 [2]: 0.0066 µM

O=C1N[C@@H]2CCC[C@@H]2c2[nH]c(-c3ccnc(NC(=O)C(CC(F)F)c4ccc(F)cc4)c3)c(Nc3ccccc3)c21 (single isomer, unassigned; (+)) [Example 22, (+)-(2R or S)—N-{4-[cis-3-anilino-4-oxo-1,4,5,5a,6,7,8,8a-octahydrocyclopenta[b]pyrrolo[2,3-d]pyridin-2-yl]pyridin-2-yl}-4,4-difluoro-2-(4-fluorophenyl)butanamide]
IC50 [1]: 0.0063 µM | IC50 [2]: 0.0054 µM

Cn1cc(CC2CC2)c2[nH]c(-c3ccnc(NC(=O)Cc4ccc(F)cc4)c3)c(Nc3ccccc3)c2c1=O [Example 32, N-{4-[3-anilino-7-(cyclopropylmethyl)-5-methyl-4-oxo-4,5-dihydro-1H-pyrrolo[3,2-c]pyridin-2-yl]pyridin-2-yl}-2-(4-fluorophenyl)acetamide]
IC50 [1]: 0.036 µM | IC50 [2]: 0.027 µM

CN1CC(CC2CC2)c2[nH]c(-c3ccnc(NC(=O)Cc4ccc(F)cc4)c3)c(Nc3ccccc3)c2C1=O (single isomer, unassigned) [Example 20, N-{4-[3-anilino-7-(cyclopropylmethyl)-5-methyl-4-oxo-4,5,6,7-tetrahydro-1H-pyrrolo[3,2-c]pyridin-2-yl]pyridin-2-yl}-2-(4-fluorophenyl)acetamide]
IC50 [1]: 0.029 µM | IC50 [2]: 0.017 µM

Cn1cc(CC(F)F)c2[nH]c(-c3ccnc(NC(=O)Cc4ccc(F)cc4)c3)c(Nc3ccccc3)c2c1=O [Example 45, N-{4-[3-anilino-7-(2,2-difluoroethyl)-5-methyl-4-oxo-4,5-dihydro-1H-pyrrolo[3,2-c]pyridin-2-yl]pyridin-2-yl}-2-(4-fluorophenyl)acetamide]
IC50 [1]: 0.0097 µM | IC50 [2]: 0.0057 µM

C[C@@H](C(=O)Nc1cc(-c2[nH]c3ccn(C)c(=O)c3c2Nc2ccccc2)ccn1)c1ccc(F)cc1 (single isomer, unassigned) [Example 27]
IC50 [1]: 0.028 µM | IC50 [2]: 0.021 µM

CCC1CNC(=O)c2c1[nH]c(-c1ccnc(NC(=O)C(CC(F)F)c3ccc(F)cc3)c1)c2Nc1ccccc1 (stereo not shown) [Example 4, N-{4-[3-anilino-7-ethyl-4-oxo-4,5,6,7-tetrahydro-1H-pyrrolo[3,2-c]pyridin-2-yl]pyridin-2-yl}-4,4-difluoro-2-(4-fluorophenyl)butanamide]
IC50 [1]: 0.016 µM | IC50 [2]: 0.016 µM

CN1CC(CC(F)(F)F)c2[nH]c(-c3ccnc(NC(=O)C(CC(F)F)c4ccc(F)cc4)c3)c(Nc3cscn3)c2C1=O (single isomer, unassigned) [Example 56, (2R or S)-4,4-difluoro-2-(4-fluorophenyl)-N-{4-[(7R or S)-5-methyl-4-oxo-3-[(1,3-thiazol-4-yl)amino]-7-(2,2,2-trifluoroethyl)-4,5,6,7-tetrahydro-1H-pyrrolo[3,2-c]pyridin-2-yl]pyridin-2-yl}butanamide]
IC50 [1]: 0.013 µM | IC50 [2]: 0.0077 µM
